The values below come from patent US12227515B2, “In-flow photooxygenation of aminothienopyridinones generates novel PTP4A3 phosphatase inhibitors” (University of Virginia Patent Foundation, priority 2018, dated 2025).

For test [1], the target named is recombinant human His6-tagged PTP4A2 (Homo sapiens (Human), UniProt Q12974). The experiment in a line: In vitro biochemical analysis of PTP4A inhibition, DiFMUP substrate. The conditions noted are these: DiFMUP 12 μM, 25 minutes, 25° C.; mean ± S.E.M.
Test [2] concerns the target recombinant human His6-tagged PTP4A3 (Homo sapiens (Human), UniProt O75365). The description is as above. The conditions noted are these: for preference among the PTP4A family members: PTP4A3 versus PTP4A1 and PTP4A2, from IC50 values.

Chain of recombinant human His6-tagged PTP4A3 (O75365 whole entry): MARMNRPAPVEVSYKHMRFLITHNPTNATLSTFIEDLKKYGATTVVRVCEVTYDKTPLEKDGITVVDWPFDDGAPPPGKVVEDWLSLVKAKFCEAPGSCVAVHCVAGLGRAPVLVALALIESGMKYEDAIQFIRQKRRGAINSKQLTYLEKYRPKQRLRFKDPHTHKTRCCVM
Chain of recombinant human His6-tagged PTP4A2 (Q12974 whole entry): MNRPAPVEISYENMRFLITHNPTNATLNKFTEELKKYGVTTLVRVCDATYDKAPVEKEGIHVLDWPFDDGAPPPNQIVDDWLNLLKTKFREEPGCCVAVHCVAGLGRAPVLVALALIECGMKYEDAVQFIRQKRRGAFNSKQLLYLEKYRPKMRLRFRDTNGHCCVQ

As a reminder, the IC50 is the concentration at which inhibition is half-maximal. In the case of `N=C1C(=O)NC(=O)c2cc(-c3ccccc3Cl)sc21` [Compound 9k, 2-(2-Chlorophenyl)-7-iminothieno[3,2-c]pyridine-4,6(5H,7H)-dione], the IC50 in test [1] turned out to be 113 nM. Further, the “preference among the PTP4A family members” value in test [2] is on record as “even more pronounced preference for PTP4A3 compared with PTP4A2”.
Take `N=C1C(=O)NC(=O)c2cc(-c3ccc(OCCN4CCOCC4)cc3)sc21` [Compound 9o, 7-Imino-2-(4-(2-morpholinoethoxy)phenyl)thieno[3,2-c]pyridine-4,6(5H,7H)-dione]: the “preference among the PTP4A family members” value in test [2] is listed as “little preference”.
`CN1C(=O)C(=N)c2sc(-c3ccccc3)cc2C1=O` [Compound 9p, 7-Imino-5-methyl-2-phenylthieno[3,2-c]pyridine-4,6(5H,7H)-dione]: in test [1], the IC50 was 264 nM. The “preference among the PTP4A family members” value in test [2] is listed as “even more pronounced preference for PTP4A3 compared with PTP4A2”.
For `O=c1[nH]c(=O)c2cc(-c3ccccc3)sc2[nH]1` [JMS-038, 6-phenylthieno[2,3-d]pyrimidine-2,4(1H,3H)-dione, reference compound], in test [2] (DiFMUP 12 μM, 25 minutes, 25° C., mean ± S.E.M.), the “IC50 PTP4A3” value is “failed to inhibit PTP4A3”.
